Reference: ChEMBL document CHEMBL1147331, “Cytotoxic and antimalarial bisbenzylisoquinoline alkaloids from Stephania erecta” (J Nat Prod, 1993)
≈ marks a conversion by molar mass, not a printed value.

Legend:
Plasmodium falciparum [1] = test: Antimalarial activity after 24 hrs against chloroquine-sensitive Plasmodium falciparum D6 infected type A+ human erythrocytes by [3H]hypoxanthine uptake; type: functional; settings: read-out: ED50 (the source's name)
Plasmodium falciparum [2] = test: Antimalarial activity after 24 hrs against chloroquine-resistant Plasmodium falciparum W2 infected type A+ human erythrocytes by [3H]hypoxanthine uptake; type: functional; settings: read-out: ED50 (the source's name)
[3] = Cytotoxicity against human BCA1 cells after 3 days by sulforhodamine B assay; type: cell-based; settings: read-out: ED50
[4] = Cytotoxicity against human HT1080 cells after 3 days by sulforhodamine B assay; type: cell-based, HT-1080; settings: read-out: ED50
[5] = Cytotoxicity against human LUC1 cells after 3 days by sulforhodamine B assay; type: cell-based; settings: read-out: ED50
[6] = Cytotoxicity against human SK-MEL-2 cells after 3 days by sulforhodamine B assay; type: cell-based; settings: read-out: ED50
[7] = Cytotoxicity against human Col1 cells after 3 days by sulforhodamine B assay; type: cell-based; settings: read-out: ED50
[8] = Cytotoxicity against human KB cells after 3 days by sulforhodamine B assay; type: cell-based; settings: read-out: ED50
[9] = Cytotoxicity against human KBV1 cells after 3 days by sulforhodamine B assay; type: cell-based, KB-V1; settings: read-out: ED50
[10] = Cytotoxicity against mouse P388 cells after 2 days by sulforhodamine B assay; type: cell-based; settings: read-out: ED50
[11] = Cytotoxicity against human A431 cells after 3 days by sulforhodamine B assay; type: cell-based, A-431; settings: read-out: ED50
[12] = Cytotoxicity against human LNCAP cells after 3 days by sulforhodamine B assay; type: cell-based; settings: read-out: ED50
[13] = Cytotoxicity against human ZR-75-1 cells after 3 days by sulforhodamine B assay; type: cell-based; settings: read-out: ED50
[14] = Selectivity index, ratio of ED50 for human BCA1 cells to ED50 for chloroquine-sensitive Plasmodium falciparum D6; type: toxicity, cell-based; settings: read-out: Ratio ED50
[15] = Selectivity index, ratio of ED50 for human BCA1 cells to ED50 for chloroquine-resistant Plasmodium falciparum W2; type: toxicity, cell-based; settings: read-out: Ratio ED50
[16] = Selectivity index, ratio of ED50 for human HT1080 cells to ED50 for chloroquine-sensitive Plasmodium falciparum D6; type: toxicity, cell-based, HT-1080; settings: read-out: Ratio ED50
[17] = Selectivity index, ratio of ED50 for human HT1080 cells to ED50 for chloroquine-resistant Plasmodium falciparum W2; type: toxicity, cell-based, HT-1080; settings: read-out: Ratio ED50
[18] = Selectivity index, ratio of ED50 for human LUC1 cells to ED50 for chloroquine-sensitive Plasmodium falciparum D6; type: toxicity, cell-based; settings: read-out: Ratio ED50
[19] = Selectivity index, ratio of ED50 for human LUC1 cells to ED50 for chloroquine-resistant Plasmodium falciparum W2; type: toxicity, cell-based; settings: read-out: Ratio ED50
[20] = Selectivity index, ratio of ED50 for human MEL2 cells to ED50 for chloroquine-sensitive Plasmodium falciparum D6; type: toxicity, cell-based; settings: read-out: Ratio ED50
[21] = Selectivity index, ratio of ED50 for human MEL2 cells to ED50 for chloroquine-resistant Plasmodium falciparum W2; type: toxicity, cell-based; settings: read-out: Ratio ED50
[22] = Selectivity index, ratio of ED50 for human COL1 cells to ED50 for chloroquine-sensitive Plasmodium falciparum D6; type: toxicity, cell-based; settings: read-out: Ratio ED50
[23] = Selectivity index, ratio of ED50 for human COL1 cells to ED50 for chloroquine-resistant Plasmodium falciparum W2; type: toxicity, cell-based; settings: read-out: Ratio ED50
[24] = Selectivity index, ratio of ED50 for human KB cells to ED50 for chloroquine-sensitive Plasmodium falciparum D6; type: toxicity, cell-based; settings: read-out: Ratio ED50
[25] = Selectivity index, ratio of ED50 for human KB cells to ED50 for chloroquine-resistant Plasmodium falciparum W2; type: toxicity, cell-based; settings: read-out: Ratio ED50
[26] = Selectivity index, ratio of ED50 for human KB-V1 cells to ED50 for chloroquine-sensitive Plasmodium falciparum D6; type: toxicity, cell-based; settings: read-out: Ratio ED50
[27] = Selectivity index, ratio of ED50 for human KB-V1 cells to ED50 for chloroquine-resistant Plasmodium falciparum W2; type: toxicity, cell-based; settings: read-out: Ratio ED50
[28] = Selectivity index, ratio of ED50 for human LNCaP cells to ED50 for chloroquine-sensitive Plasmodium falciparum D6; type: toxicity, cell-based; settings: read-out: Ratio ED50
[29] = Selectivity index, ratio of ED50 for human LNCaP cells to ED50 for chloroquine-resistant Plasmodium falciparum W2; type: toxicity, cell-based; settings: read-out: Ratio ED50
[30] = Selectivity index, ratio of ED50 for human ZR-75-1 cells to ED50 for chloroquine-sensitive Plasmodium falciparum D6; type: toxicity, cell-based; settings: read-out: Ratio ED50
[31] = Selectivity index, ratio of ED50 for human ZR-75-1 cells to ED50 for chloroquine-resistant Plasmodium falciparum W2; type: toxicity, cell-based; settings: read-out: Ratio ED50
in vitro [32] = settings: mouse, P388 cells
Description: Selectivity index, ratio of ED50 for mice (Mus musculus) P388 cells to ED50 for chloroquine-sensitive Plasmodium falciparum D6

in vitro [33] = settings: mouse, P388 cells; remark: listed apart in the source
Description: Selectivity index, ratio of ED50 for mice (Mus musculus) P388 cells to ED50 for chloroquine-resistant Plasmodium falciparum W2

in vitro [34] = settings: human, A431 cells
Description: Selectivity index, ratio of ED50 for human A431 cells to ED50 for chloroquine-sensitive Plasmodium falciparum D6

in vitro [35] = settings: human, A431 cells; remark: listed apart in the source
Description: Selectivity index, ratio of ED50 for human A431 cells to ED50 for chloroquine-resistant Plasmodium falciparum W2

SMILES | EC50 (Plasmodium falciparum [1]) | EC50 (Plasmodium falciparum [2]) | CC50 at 72 h [3] | CC50 at 72 h [4] | CC50 at 72 h [5] | CC50 at 72 h [6] | CC50 at 72 h [7] | CC50 at 72 h [8] | CC50 at 72 h [9] | CC50 at 48 h [10] | CC50 at 72 h [11] | CC50 at 72 h [12] | CC50 at 72 h [13] | selectivity ratio [14] | selectivity ratio [15] | selectivity ratio [16] | selectivity ratio [17] | selectivity ratio [18] | selectivity ratio [19] | selectivity ratio [20] | further results
COc1ccc2cc1Oc1ccc(cc1)C[C@H]1c3cc(c(OC)cc3CCN1C)Oc1c(O)c(OC)cc3c1[C@@H](C2)N(C)CC3 | 0.121 µg/mL (≈ 0.198 µM) | 0.23 µg/mL (≈ 0.377 µM) | 5 µg/mL (≈ 8.21 µM) | 10 µg/mL (≈ 16.4 µM) | 9.7 µg/mL (≈ 15.9 µM) | 14.9 µg/mL (≈ 24.5 µM) | 11.1 µg/mL (≈ 18.2 µM) | 6.5 µg/mL (≈ 10.7 µM) | 3.7 µg/mL (≈ 6.08 µM) | 7.4 µg/mL (≈ 12.2 µM) | 4.9 µg/mL (≈ 8.05 µM) | 5.9 µg/mL (≈ 9.69 µM) | 2.5 µg/mL (≈ 4.11 µM) | 42 | 22 | 83 | 44 | 80 | 42 | 124 | selectivity ratio [21]: 65; selectivity ratio [22]: 92; selectivity ratio [23]: 48; selectivity ratio [24]: 54; selectivity ratio [25]: 28; selectivity ratio [26]: 31; selectivity ratio [27]: 16; selectivity ratio [28]: 49; selectivity ratio [29]: 26; selectivity ratio [30]: 21; selectivity ratio [31]: 11; selectivity ratio (in vitro [32]): 61; selectivity ratio (in vitro [33]): 32; selectivity ratio (in vitro [34]): 41; selectivity ratio (in vitro [35]): 21
COc1ccc2cc1Oc1ccc(cc1)C[C@H]1c3c(cc(OC)c(O)c3Oc3cc4c(cc3OC)CCN[C@@H]4C2)CCN1C | 0.063 µg/mL (≈ 0.106 µM) | 0.223 µg/mL (≈ 0.375 µM) | 4.6 µg/mL (≈ 7.73 µM) | 6.9 µg/mL (≈ 11.6 µM) | 9 µg/mL (≈ 15.1 µM) | 13.4 µg/mL (≈ 22.5 µM) | 10.3 µg/mL (≈ 17.3 µM) | 5.8 µg/mL (≈ 9.75 µM) | 2.2 µg/mL (≈ 3.7 µM) | 2 µg/mL (≈ 3.36 µM) | 8.3 µg/mL (≈ 14 µM) | 5.8 µg/mL (≈ 9.75 µM) | 1.8 µg/mL (≈ 3.03 µM) | 73 | 21 | 110 | 31 | 143 | 40 | 213 | selectivity ratio [21]: 60; selectivity ratio [22]: 164; selectivity ratio [23]: 46; selectivity ratio [24]: 92; selectivity ratio [25]: 26; selectivity ratio [26]: 35; selectivity ratio [27]: 10; selectivity ratio [28]: 92; selectivity ratio [29]: 26; selectivity ratio [30]: 29; selectivity ratio [31]: 8; selectivity ratio (in vitro [32]): 32; selectivity ratio (in vitro [33]): 9; selectivity ratio (in vitro [34]): 132; selectivity ratio (in vitro [35]): 37
COc1ccc2cc1Oc1ccc(cc1)C[C@H]1c3c(cc4c(c3Oc3cc5c(cc3OC)CCN[C@@H]5C2)OCO4)CCN1C | 0.0466 µg/mL (≈ 0.0786 µM) | 0.129 µg/mL (≈ 0.218 µM) | 1.7 µg/mL (≈ 2.87 µM) | 1.9 µg/mL (≈ 3.21 µM) | 2 µg/mL (≈ 3.37 µM) | 10.5 µg/mL (≈ 17.7 µM) | 3.1 µg/mL (≈ 5.23 µM) | 3.9 µg/mL (≈ 6.58 µM) | 1.4 µg/mL (≈ 2.36 µM) | 0.1 µg/mL (≈ 0.169 µM) | 1.8 µg/mL (≈ 3.04 µM) | 3 µg/mL (≈ 5.06 µM) | 0.9 µg/mL (≈ 1.52 µM) | 36 | 13 | 41 | 15 | 43 | 16 | 225 | selectivity ratio [21]: 81; selectivity ratio [22]: 67; selectivity ratio [23]: 24; selectivity ratio [24]: 84; selectivity ratio [25]: 30; selectivity ratio [26]: 30; selectivity ratio [27]: 11; selectivity ratio [28]: 64; selectivity ratio [29]: 23; selectivity ratio [30]: 19; selectivity ratio [31]: 7; selectivity ratio (in vitro [32]): 2; selectivity ratio (in vitro [33]): 1; selectivity ratio (in vitro [34]): 39; selectivity ratio (in vitro [35]): 14
COc1ccc2cc1Oc1ccc(cc1)C[C@H]1c3cc(c(OC)cc3CCN1C)Oc1c(OC)c(OC)cc3c1[C@@H](C2)NCC3 | 0.0661 µg/mL (≈ 0.109 µM) | 0.0453 µg/mL (≈ 0.0744 µM) | 4.4 µg/mL (≈ 7.23 µM) | 7.5 µg/mL (≈ 12.3 µM) | 9.8 µg/mL (≈ 16.1 µM) | 8.2 µg/mL (≈ 13.5 µM) | 7.6 µg/mL (≈ 12.5 µM) | 6.3 µg/mL (≈ 10.3 µM) | 2.8 µg/mL (≈ 4.6 µM) | 4.7 µg/mL (≈ 7.72 µM) | 4.7 µg/mL (≈ 7.72 µM) | 4.1 µg/mL (≈ 6.74 µM) | 1.8 µg/mL (≈ 2.96 µM) | 67 | 97 | 114 | 166 | 148 | 216 | 124 | selectivity ratio [21]: 181; selectivity ratio [22]: 115; selectivity ratio [23]: 168; selectivity ratio [24]: 95; selectivity ratio [25]: 139; selectivity ratio [26]: 42; selectivity ratio [27]: 62; selectivity ratio [28]: 62; selectivity ratio [29]: 91; selectivity ratio [30]: 27; selectivity ratio [31]: 40; selectivity ratio (in vitro [32]): 71; selectivity ratio (in vitro [33]): 104; selectivity ratio (in vitro [34]): 71; selectivity ratio (in vitro [35]): 104
